In the supplement of paper PMC10331698:
± gives the standard deviation of the averaged measurements.

Columns and labels:
Test in all cases: LOEC (log10 uM (lowest observed effect concentration))
[1] = compound: O=C(O)C=C(C(F)(F)F)C(F)(F)F [3,3-Bis(trifluoromethyl)-2-propenoic acid]
Method: (§1)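 BioMAP Diversity Plus panel in human primary cell co-cultures, 4 concentrations in duplicate blinded samples. Responses are log10 fold change versus DMSO control, processed with tcpl v2.1.0. A hit is called when responses at any concentration exceed the cutoff (the larger of 3*bmad or log10(1.2)); the lowest observed effect concentration (modl_ga, log10 uM) is reported for hits.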

[2] = compound: C[C@@H]1C[C@H]2[C@@H]3CCC4=CC(=O)C=C[C@]4(C)[C@@]3(F)[C@@H](O)C[C@]2(C)[C@@]1(O)C(=O)COP(=O)(O)O [Dexamethasone sodium phosphate]
Method: as §1

[3] = compound: O=S(=O)(O)C(F)(F)C(F)(F)OC(F)(F)C(F)(F)F [Perfluoro(2-ethoxyethane)sulfonic acid]
Method: as §1

[4] = compound: O=S(=O)(O)CCC(F)(F)C(F)(F)C(F)(F)C(F)(F)C(F)(F)C(F)(F)C(F)(F)C(F)(F)F [8:2 Fluorotelomer sulfonic acid]
Method: as §1

[5] = compound: O=C(O)C(F)(OC(F)(F)C(F)(F)C(F)(F)F)C(F)(F)F [Ammonium perfluoro-2-methyl-3-oxahexanoate]
Method: as §1

[6] = compound: NS(=O)(=O)C(F)(F)C(F)(F)C(F)(F)C(F)(F)C(F)(F)C(F)(F)C(F)(F)C(F)(F)F [Perfluorooctanesulfonamide]
Method: as §1

[7] = compound: O=C(O)C(F)(F)OC(F)(F)C(F)(F)OC(F)(F)C(F)(F)OC(F)(F)C(F)(F)C(F)(F)C(F)(F)F [Perfluoro-3,6,9-trioxatridecanoic acid]
Method: as §1

[8] = compound: OCC(F)(F)OC(F)(F)C(F)(F)OC(F)(F)C(F)(F)OC(F)(F)CO [1H,1H,11H,11H-Perfluorotetraethylene glycol]
Method: as §1

[9] = compound: OCC(F)(F)C(F)(F)C(F)(F)C(F)(F)C(F)(F)C(F)(F)CO [1H,1H,8H,8H-Perfluorooctane-1,8-diol]
Method: as §1

[10] = compound: O=S(=O)(O)C(F)(F)C(F)(F)C(F)(F)C(F)(F)C(F)(F)C(F)(F)C(F)(F)F [Perfluoroheptanesulfonic acid]
Method: as §1

[11] = compound: O=C(O)C(F)(F)C(F)(F)C(F)(F)C(F)(F)C(F)(F)C(F)(F)C(F)(F)C(F)(F)F [Perfluorononanoic acid]
Method: as §1

[12] = compound: CCNS(=O)(=O)C(F)(F)C(F)(F)C(F)(F)C(F)(F)C(F)(F)C(F)(F)C(F)(F)C(F)(F)F [N-Ethylperfluorooctanesulfonamide]
Method: as §1

[13] = compound: OCCC(F)(F)C(F)(F)C(F)(F)C(F)(F)F [4:2 Fluorotelomer alcohol]
Method: as §1

[14] = compound: O=C(O)C(F)(F)C(F)(F)C(F)(F)C(F)(F)C(F)(F)C(F)(F)C(F)(F)C(F)(F)C(F)(F)C(F)(F)F [Perfluoroundecanoic acid]
Method: as §1

[15] = compound: O=C(O)CCC(F)(C(F)(F)F)C(F)(F)F [4,4-bis(Trifluoromethyl)-4-fluoropropanoic acid]
Method: as §1

Row | Test System | LOEC (log10 uM) [1] | LOEC (log10 uM) [2] | LOEC (log10 uM) [4] | LOEC (log10 uM) [6] | LOEC (log10 uM) [7] | LOEC (log10 uM) [11] | LOEC (log10 uM) [12] | LOEC (log10 uM) [14] | further results
1 | IMphg IL10 down | 0.845 | 0 | 1.3 | 1.54 ± 0.34 | 1.78 | 1.78 |  |  | LOEC (log10 uM) [3]: 1.78; LOEC (log10 uM) [5]: 0.301; LOEC (log10 uM) [8]: 1.78; LOEC (log10 uM) [9]: 1.31 ± 0.66; LOEC (log10 uM) [10]: 1.48
2 | BT xIL2 down | 0.845 | 0 |  |  |  |  |  |  | 
3 | CASM3C IL6 down | 1.07 ± 0.32 | 0.239 ± 0.34 |  |  |  |  |  |  | 
4 | IMphg CD69 down |  |  | 1.78 |  | 1.31 ± 0.66 | 1.78 | 1.78 |  | 
5 | BT PBMCCytotoxicity down |  | 0 |  |  |  |  |  |  | 
6 | LPS PGE2 down |  | 1.22 ± 0.37 | 1.78 |  | 1.78 | 1.54 ± 0.34 |  |  | 
7 | IMphg VCAM1 down | 1.78 | 1.48 |  | 1.78 | 1.78 | 1.78 | 1.78 |  | 
8 | LPS Thrombomodulin up |  |  | 1.54 ± 0.34 |  | 1.78 |  | 1.78 |  | LOEC (log10 uM) [8]: 1.04 ± 1
9 | SAg IL8 down | 1.78 |  |  | 1.78 | 1.3 | 1.78 | 1.78 |  | LOEC (log10 uM) [8]: 1.78
10 | BT xTNFa up |  |  |  |  |  |  |  |  | LOEC (log10 uM) [13]: 1.31 ± 0.66
11 | BE3C IL8 down |  | 0.239 ± 0.34 | 1.78 | 0.845 | 0.845 | 1.3 | 1.3 | 0.845 | 
12 | hDFCGF VCAM1 down | 1.78 |  |  | 1.07 ± 0.32 | 0.845 |  | 0.301 | 0.301 | LOEC (log10 uM) [8]: 1.3
13 | hDFCGF Proliferation down | 1.78 |  |  | 1.3 | 0.845 | 1.54 ± 0.34 | 1.3 | 0.301 | LOEC (log10 uM) [8]: 1.04 ± 1
14 | LPS IL1a down |  |  | 1.78 | 1.78 | 1.78 | 1.78 |  | -0.427 ± 0.39 | 
15 | BE3C MMP1 up |  |  | 1.3 |  |  |  | 1.3 |  | LOEC (log10 uM) [5]: 1.78; LOEC (log10 uM) [10]: 1.48
16 | IMphg ESelectin up |  |  | 1.78 |  |  |  |  |  | 
17 | BE3C HLADR down |  |  | 1.3 | 0.845 | 0.845 | 1.31 ± 0.66 | 1.3 | 0.573 ± 0.39 | LOEC (log10 uM) [8]: 1.78
18 | CASM3C VCAM1 down | 0.573 ± 0.39 |  |  | 1.78 | 1.78 |  | 1.54 ± 0.34 |  | LOEC (log10 uM) [5]: 1.31 ± 0.66
19 | IMphg MCP1 down |  | 0.477 |  | 1.54 ± 0.34 | 1.3 |  | 1.78 |  | 
20 | BF4T tPA down | 1.07 ± 0.32 |  |  | 1.78 | 0.845 | 1.54 ± 0.34 | 1.3 | 0.845 | LOEC (log10 uM) [8]: 1.54 ± 0.34
21 | hDFCGF MMP1 down |  | 0.954 |  | 1.3 | 0.845 |  | 1.78 | 0.845 | 

Row | Test System | LOEC (log10 uM) [1] | LOEC (log10 uM) [2] | LOEC (log10 uM) [4] | LOEC (log10 uM) [6] | LOEC (log10 uM) [7] | LOEC (log10 uM) [11] | LOEC (log10 uM) [12] | LOEC (log10 uM) [14] | further results
22 | BF4T Eotaxin3 down |  |  | 1.54 ± 0.34 | 1.3 | 0.845 | 1.3 | 0.845 | 0.301 | 
23 | IMphg ESelectin down | 1.78 | 0 |  | 0.573 ± 0.39 | 1.3 |  | 1.54 ± 0.34 |  | 
24 | 4H Eotaxin3 down | 1.78 |  |  | 1.78 | 1.78 | 1.78 | 1.54 ± 0.34 |  | LOEC (log10 uM) [5]: 1.04 ± 1
25 | BE3C IP10 down |  |  | 1.3 | 0.845 | 0.845 | 1.3 | 1.07 ± 0.32 | 0.301 | LOEC (log10 uM) [8]: 1.78
26 | LPS IL8 up |  |  |  |  |  |  |  |  | LOEC (log10 uM) [3]: 1.54 ± 0.34; LOEC (log10 uM) [5]: 1.54 ± 0.34
27 | IMphg MIP1a down |  | 0 |  |  | 1.54 ± 0.34 |  |  |  | 
28 | BE3C tPA down | 0.801 ± 0.71 | 0.239 ± 0.34 |  | 1.78 | 0.845 | 1.3 | 1.3 | 0.845 | 
29 | KF3CT IL1a down |  |  | 1.3 | 1.78 | 1.3 | 0.801 ± 0.71 | 1.78 | 0.845 | 
30 | CASM3C MCP1 down |  | 0.477 ± 0.68 |  |  |  |  |  |  | 
31 | BF4T IL8 up |  |  |  |  |  |  |  |  | LOEC (log10 uM) [10]: 1.48
32 | BE3C MMP1 down |  | 0.477 ± 0.68 |  |  | 0.845 | 1.78 |  | 0.845 | 
33 | IMphg IL8 down |  | 0.239 ± 0.34 |  |  |  |  |  |  | 
34 | 3C IL8 up |  |  |  |  |  |  |  |  | LOEC (log10 uM) [5]: 1.78
35 | IMphg CD40 down |  |  | 1.78 | 1.3 | 1.78 | 1.78 | 1.78 |  | 
36 | CASM3C Thrombomodulin up |  |  |  | 1.78 |  |  | 1.78 |  | LOEC (log10 uM) [5]: 0.845
37 | IMphg IL8 up | 1.3 |  |  |  |  | 1.07 ± 0.32 | 1.78 |  | LOEC (log10 uM) [5]: 0.573 ± 0.39
38 | CASM3C SAA up |  |  |  |  |  |  |  |  | LOEC (log10 uM) [3]: 1.54 ± 0.34; LOEC (log10 uM) [15]: 1.54 ± 0.34
39 | SAg Eselectin down | 1.3 | 0.716 ± 0.34 |  | 1.78 | 1.78 |  | 1.78 |  | LOEC (log10 uM) [8]: 1.78
40 | BT xIL6 down |  | 0.716 ± 0.34 |  | 1.78 | 1.78 |  |  |  | LOEC (log10 uM) [8]: 1.78
41 | LPS TNFa down |  | 0.954 |  | 1.78 | 1.78 |  |  | 0.845 | 
